From PubChem BioAssay AID1963870 (Molecular Pharmacology Branch, DTP, NCI, 2024)

System: 292921-168-R-J2-PDC KRAS tumor spheroid viability
Assay: Anticancer human tumor 292921-168-R-J2-PDC patient-derived pancreatic carcinoma cell line growth inhibition [KRAS2]
Conditions: spheroids with HUVEC and MSC; for IC50: curve of first compound; for viability, T/C: stronger effect = lower value
How it was run: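 KRAS-mutant tumor cells were grown as spheroids with HUVEC endothelial cells and human MSCs as stroma. Targeted agents were tested alone and with KRAS pathway inhibitors. Doses started at or near clinical Cmax, or 10 microM, descending half-log.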
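Further: drug exposure lasted seven days after spheroids formed for three days.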
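Wherever viability, T/C is given: percent of DMSO vehicle control viability which is 100%.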

Question: How did the IC50 (second compound 0.1 µM) turn out when COC(=O)c1ccc2c(C(=Nc3ccc(N(C)C(=O)CN4CCN(C)CC4)cc3)c3ccccc3)c(O)[nH]c2c1 + CNCc1ccccc1-c1csc(C(C)Nc2nc(C)nc3cc(OC)c(OC)cc23)c1 was run?
Answer: 0.538 µM

Question: What about the IC50 (second compound 0.316 µM) of the same compound?
Answer: 0.516 µM

Question: And the IC50 (second compound 1 µM)?
Answer: 0.407 µM

Question: And the IC50 (second compound 3.16 µM)?
Answer: < 0.0316 µM

Question: What about the IC50 (second compound 10 µM) of the same compound?
Answer: < 0.0316 µM

Question: And the viability, T/C (second compound 0.1 µM, first compound 0.0316 µM)?
Answer: 101%

Question: What about the viability, T/C (second compound 0.1 µM, first compound 0.1 µM) of the same compound?
Answer: 92.9%

Question: And the viability, T/C (second compound 0.1 µM, first compound 0.316 µM)?
Answer: 64.5%

Question: And the viability, T/C (second compound 0.1 µM, first compound 1 µM)?
Answer: 31.9%

Question: And the viability, T/C (second compound 0.1 µM, first compound 3.16 µM)?
Answer: 10.4%

Question: What about the viability, T/C (second compound 0.1 µM, first compound 10 µM) of the same compound?
Answer: 0.5%

Question: What about the viability, T/C (second compound 0.316 µM, first compound 0.0316 µM) of the same compound?
Answer: 90.5%

Question: And the viability, T/C (second compound 0.316 µM, first compound 0.1 µM)?
Answer: 88.1%

Question: What about the viability, T/C (second compound 0.316 µM, first compound 0.316 µM) of the same compound?
Answer: 64.2%

Question: What about the viability, T/C (second compound 0.316 µM, first compound 1 µM) of the same compound?
Answer: 28.8%

Question: What about the viability, T/C (second compound 0.316 µM, first compound 3.16 µM) of the same compound?
Answer: 13.5%

Question: What about the viability, T/C (second compound 0.316 µM, first compound 10 µM) of the same compound?
Answer: 0.68%

Question: And the viability, T/C (second compound 1 µM, first compound 0.0316 µM)?
Answer: 106%

Question: And the viability, T/C (second compound 1 µM, first compound 0.1 µM)?
Answer: 88.3%

Question: What about the viability, T/C (second compound 1 µM, first compound 0.316 µM) of the same compound?
Answer: 52.5%

Question: What about the viability, T/C (second compound 1 µM, first compound 1 µM) of the same compound?
Answer: 32.1%

Question: And the viability, T/C (second compound 1 µM, first compound 3.16 µM)?
Answer: 4.65%

Question: And the viability, T/C (second compound 1 µM, first compound 10 µM)?
Answer: 0.52%

Question: What about the viability, T/C (second compound 3.16 µM, first compound 0.0316 µM) of the same compound?
Answer: 0.14%

Question: And the viability, T/C (second compound 3.16 µM, first compound 0.1 µM)?
Answer: 0.23%

Question: And the viability, T/C (second compound 3.16 µM, first compound 0.316 µM)?
Answer: 0.19%

Question: What about the viability, T/C (second compound 3.16 µM, first compound 1 µM) of the same compound?
Answer: 0.33%

Question: And the viability, T/C (second compound 3.16 µM, first compound 3.16 µM)?
Answer: 0.3%

Question: What about the viability, T/C (second compound 3.16 µM, first compound 10 µM) of the same compound?
Answer: 0.68%

Question: What about the viability, T/C (second compound 10 µM, first compound 0.0316 µM) of the same compound?
Answer: 0.2%

Question: And the viability, T/C (second compound 10 µM, first compound 0.1 µM)?
Answer: 0.22%

Question: What about the viability, T/C (second compound 10 µM, first compound 0.316 µM) of the same compound?
Answer: 0.19%

Question: What about the viability, T/C (second compound 10 µM, first compound 1 µM) of the same compound?
Answer: 0.16%

Question: What about the viability, T/C (second compound 10 µM, first compound 3.16 µM) of the same compound?
Answer: 0.13%

Question: What about the viability, T/C (second compound 10 µM, first compound 10 µM) of the same compound?
Answer: 0.35%
